# Patent publication US20250382261A1 (The Broad Institute, Inc., priority 2021, published 2025)
# How the values were obtained:
# [1] = Plasma protein binding (equilibrium dialysis); format: in vitro ADME
# Experimental: Plasma protein binding. Protein binding of P35 in mouse/rat/dog/human plasma was determined using an equilibrium dialysis method. The fraction of compound unbound to proteins was calculated with LC-MS/MS. This assay was performed in duplicate by Cyprotex Ltd.
# Solubility at pH 7.4 = format: physicochemical; conditions: pH 7.4, aqueous buffer, thermodynamic from solid; read-out: Kinetic solubility (μM @ pH 7.4)
# Experimental: Thermodynamic solubility. P35 in solution at pH 7.4 was incubated at ambient temperature overnight with stirring using a vial roller system. The saturation of the solution was determined using HPLC-UV. This assay was performed in duplicate by Cyprotex Ltd.
# hERG channel = hERG channel (Homo sapiens, UniProt Q12809)
# Chain of hERG channel (Q12809 whole entry): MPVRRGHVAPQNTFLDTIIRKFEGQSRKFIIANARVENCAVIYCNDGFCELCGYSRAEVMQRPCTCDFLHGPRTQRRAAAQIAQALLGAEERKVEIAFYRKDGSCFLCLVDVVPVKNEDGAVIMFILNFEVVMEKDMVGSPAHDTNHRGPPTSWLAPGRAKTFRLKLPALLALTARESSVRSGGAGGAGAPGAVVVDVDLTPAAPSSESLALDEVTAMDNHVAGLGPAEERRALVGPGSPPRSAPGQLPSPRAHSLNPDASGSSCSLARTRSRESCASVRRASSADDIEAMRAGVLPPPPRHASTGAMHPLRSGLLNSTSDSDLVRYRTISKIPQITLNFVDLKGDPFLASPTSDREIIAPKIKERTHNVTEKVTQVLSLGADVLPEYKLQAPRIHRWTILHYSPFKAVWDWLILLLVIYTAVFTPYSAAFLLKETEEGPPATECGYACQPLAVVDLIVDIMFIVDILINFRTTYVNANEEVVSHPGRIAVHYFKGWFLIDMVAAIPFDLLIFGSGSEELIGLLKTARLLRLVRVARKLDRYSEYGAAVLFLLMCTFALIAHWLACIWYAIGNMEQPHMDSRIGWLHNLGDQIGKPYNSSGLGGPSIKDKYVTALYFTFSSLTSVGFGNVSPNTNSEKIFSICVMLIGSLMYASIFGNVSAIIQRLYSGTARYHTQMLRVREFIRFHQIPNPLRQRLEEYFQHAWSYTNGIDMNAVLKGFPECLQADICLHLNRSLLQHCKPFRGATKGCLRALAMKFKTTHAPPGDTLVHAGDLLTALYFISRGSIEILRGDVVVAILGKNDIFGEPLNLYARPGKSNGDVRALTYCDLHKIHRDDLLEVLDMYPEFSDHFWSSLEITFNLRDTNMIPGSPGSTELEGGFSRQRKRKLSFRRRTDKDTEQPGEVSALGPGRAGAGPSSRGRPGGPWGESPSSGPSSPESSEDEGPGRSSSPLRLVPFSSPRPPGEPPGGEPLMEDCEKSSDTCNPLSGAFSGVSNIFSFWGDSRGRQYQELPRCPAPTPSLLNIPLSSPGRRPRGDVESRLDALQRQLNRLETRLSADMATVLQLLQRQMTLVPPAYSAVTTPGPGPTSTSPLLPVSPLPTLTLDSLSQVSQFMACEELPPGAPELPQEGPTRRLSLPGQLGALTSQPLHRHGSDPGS
# Experimental: hERG channel assays. All assays were performed by Cyprotex Ltd. using an eCiphrCardio assay. CDI iCell® cardiomyocytes are plated onto fibronectin coated 48 well microelectrode array plates at a density of 50,000 cells per well in 5 μl iCell® plating medium. After 2 h, 300 μl of maintenance medium is added to each well. The plate is incubated for 2 days, and then the medium is completely changed to 500 μl of maintenance medium. The cells are incubated for an additional 3 days until a stable beating phenotype is achieved and the cells are ready for drug treatment. The medium is changed the day before dosing. […] The activity of cells in a 48-well microelectrode array is recorded prior to treatment (baseline) and at 1- and 48-hours post-treatment using the Axion Biosystems Maestro MEA system. The recording conditions are at 37° C. with 5% CO2 using the standard cardiac settings on the Axion Biosystems Maestro Axis software version 2.1. The results are analyzed with the Axion Biosystem software.
# CYP2C9 = biological target: T1, CYP2C9 (Homo sapiens, UniProt P11712); assay: P450 inhibition; format: in vitro ADME; conditions: read-out: P450 Inhibition CYP 2C9 (IC50)
# T1 construct: Cyprotex Ltd. (contract laboratory that ran the assay)
# T1 sequence (P11712 whole entry): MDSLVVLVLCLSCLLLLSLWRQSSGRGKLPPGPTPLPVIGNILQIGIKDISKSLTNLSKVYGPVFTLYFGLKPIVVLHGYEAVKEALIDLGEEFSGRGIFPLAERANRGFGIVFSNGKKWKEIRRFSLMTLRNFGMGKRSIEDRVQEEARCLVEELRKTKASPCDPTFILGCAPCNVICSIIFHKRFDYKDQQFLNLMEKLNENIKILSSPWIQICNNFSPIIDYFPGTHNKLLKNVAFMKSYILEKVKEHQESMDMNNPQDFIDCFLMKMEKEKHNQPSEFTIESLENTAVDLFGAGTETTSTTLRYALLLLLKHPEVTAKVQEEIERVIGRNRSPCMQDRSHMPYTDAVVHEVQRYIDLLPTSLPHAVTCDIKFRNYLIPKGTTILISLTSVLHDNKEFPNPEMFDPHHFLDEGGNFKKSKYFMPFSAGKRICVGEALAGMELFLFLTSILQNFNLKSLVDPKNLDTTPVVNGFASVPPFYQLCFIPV
# Experimental: (§1) P450 inhibition. An 8-point dose-response of P35 (0, 0.1, 0.25, 1, 2.5, 10, 25 μM) was tested against the following cytochrome P450 (CYP) isoforms CYP3A4, CYP2C9, CYP2D6, CYP1A2, and CYP2C19. Reduction in metabolite formation was quantified using LC-MS/MS (with the exception of ethoxyresorufin for CYP1A2) to calculate an IC50 value. This assay was performed by Cyprotex Ltd.
# CYP2D6 = biological target: T2, CYP2D6 (Homo sapiens, UniProt P10635); assay: P450 inhibition; format: in vitro ADME; conditions: read-out: P450 Inhibition CYP 2D6 (IC50)
# T2 construct: Cyprotex Ltd. (contract laboratory that ran the assay)
# T2 sequence (P10635 whole entry): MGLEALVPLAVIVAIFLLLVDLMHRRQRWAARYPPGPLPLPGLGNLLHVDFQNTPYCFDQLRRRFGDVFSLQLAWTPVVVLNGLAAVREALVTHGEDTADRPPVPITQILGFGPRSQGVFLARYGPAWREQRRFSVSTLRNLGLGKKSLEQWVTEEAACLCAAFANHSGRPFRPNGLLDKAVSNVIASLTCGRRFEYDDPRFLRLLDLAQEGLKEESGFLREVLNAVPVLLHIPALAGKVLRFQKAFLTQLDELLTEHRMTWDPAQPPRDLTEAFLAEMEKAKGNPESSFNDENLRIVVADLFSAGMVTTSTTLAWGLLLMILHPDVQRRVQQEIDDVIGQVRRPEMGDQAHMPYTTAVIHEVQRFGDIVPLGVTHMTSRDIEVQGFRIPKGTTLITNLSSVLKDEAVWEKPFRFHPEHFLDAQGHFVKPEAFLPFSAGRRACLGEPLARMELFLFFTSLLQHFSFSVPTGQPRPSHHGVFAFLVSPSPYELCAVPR
# Experimental: as §1
# CYP1A2 = biological target: T3, CYP1A2 (Homo sapiens, UniProt P05177); assay: P450 inhibition; format: in vitro ADME; conditions: read-out: P450 Inhibition CYP 1A2 (IC50)
# T3 construct: Cyprotex Ltd. (contract laboratory that ran the assay)
# T3 sequence (P05177 1-516): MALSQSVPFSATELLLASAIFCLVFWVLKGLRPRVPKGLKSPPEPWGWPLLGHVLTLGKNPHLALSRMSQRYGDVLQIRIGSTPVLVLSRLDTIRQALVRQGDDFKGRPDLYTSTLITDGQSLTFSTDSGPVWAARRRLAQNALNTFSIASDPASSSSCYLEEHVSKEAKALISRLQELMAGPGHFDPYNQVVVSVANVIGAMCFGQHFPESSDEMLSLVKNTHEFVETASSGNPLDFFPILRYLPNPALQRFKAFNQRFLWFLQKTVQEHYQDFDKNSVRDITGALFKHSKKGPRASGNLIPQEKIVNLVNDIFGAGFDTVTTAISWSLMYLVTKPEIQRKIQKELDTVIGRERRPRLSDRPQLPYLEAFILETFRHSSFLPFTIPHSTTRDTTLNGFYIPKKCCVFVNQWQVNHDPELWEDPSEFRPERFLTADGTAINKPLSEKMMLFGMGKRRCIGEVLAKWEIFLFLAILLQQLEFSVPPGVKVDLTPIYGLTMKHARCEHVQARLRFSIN
# Experimental: as §1
# CYP3A4 = biological target: T4, CYP3A4 (Homo sapiens, UniProt P08684); assay: P450 inhibition; format: in vitro ADME; conditions: read-out: P450 Inhibition CYP 3A4 (IC50)
# T4 construct: Cyprotex Ltd. (contract laboratory that ran the assay)
# T4 sequence (P08684 whole entry): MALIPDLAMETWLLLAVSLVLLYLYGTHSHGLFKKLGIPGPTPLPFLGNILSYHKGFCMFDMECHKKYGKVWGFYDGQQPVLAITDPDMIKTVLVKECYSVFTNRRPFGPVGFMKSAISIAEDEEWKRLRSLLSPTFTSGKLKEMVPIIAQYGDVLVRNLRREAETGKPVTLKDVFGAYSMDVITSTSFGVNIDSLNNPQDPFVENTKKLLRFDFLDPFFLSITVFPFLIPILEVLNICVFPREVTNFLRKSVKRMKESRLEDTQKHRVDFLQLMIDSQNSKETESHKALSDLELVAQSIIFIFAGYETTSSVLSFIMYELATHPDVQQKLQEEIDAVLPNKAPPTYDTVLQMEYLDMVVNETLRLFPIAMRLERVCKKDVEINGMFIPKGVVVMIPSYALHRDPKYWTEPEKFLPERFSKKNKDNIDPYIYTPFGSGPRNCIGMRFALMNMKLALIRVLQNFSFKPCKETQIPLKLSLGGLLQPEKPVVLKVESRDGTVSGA
# Experimental: as §1
# CYP2C19 = biological target: T5, CYP2C19 (Homo sapiens, UniProt P33261); assay: P450 inhibition; format: in vitro ADME; conditions: read-out: P450 Inhibition CYP 2C19 (IC50)
# T5 construct: Cyprotex Ltd. (contract laboratory that ran the assay)
# T5 sequence (P33261 whole entry): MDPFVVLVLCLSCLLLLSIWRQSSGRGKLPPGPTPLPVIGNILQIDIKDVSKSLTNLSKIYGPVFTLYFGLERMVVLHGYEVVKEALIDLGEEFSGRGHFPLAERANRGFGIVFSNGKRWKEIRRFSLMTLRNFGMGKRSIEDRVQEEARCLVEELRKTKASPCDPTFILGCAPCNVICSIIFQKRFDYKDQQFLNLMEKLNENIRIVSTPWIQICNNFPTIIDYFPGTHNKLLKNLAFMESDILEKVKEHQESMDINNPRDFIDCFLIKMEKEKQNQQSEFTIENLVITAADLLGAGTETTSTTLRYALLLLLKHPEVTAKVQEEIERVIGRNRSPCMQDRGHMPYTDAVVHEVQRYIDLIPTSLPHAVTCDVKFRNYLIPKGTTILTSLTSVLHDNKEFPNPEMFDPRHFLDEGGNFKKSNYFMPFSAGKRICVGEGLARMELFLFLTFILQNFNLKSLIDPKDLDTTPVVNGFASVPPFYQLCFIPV
# Experimental: as §1
# [2] = In vitro metabolic stability, dog; format: in vitro ADME; conditions: read-out: In vitro metabolic stability (t1/2, min), dog
# [3] = test system: HEK293 (ATCC CRL 1573) cells; assay: HEK293 cytotoxicity assay (Cell Titer Glo); format: cell-based; conditions: human, 48 h
# Experimental: (§2) Cytotoxicity Assays. HEK293 (ATCC CRL 1573) cells were left to adhere for 18 h at 7.5×10^3 cells per well in DMEM containing 10% FBS and 2 mM L-glutamine. Compound was added directly into the well. After 48 h of treatment Promega Cell Titer Glo 2.0® was added, shaken for 10 min, and luminescence read (Biotek Neo). AC50 values were calculated using a four-parameter logistic curve in GraphPad Prism 9.
# (§3) Focusing on only the analogs that retained synergistic activity with novobiocin (FICI≤0.5), half-maximal activity (AC50) values were calculated against HEK293 cells using a CellTiter-Glo® based assay to approximate cell viability. […] Specifically, the FICI value for both P35 and P36 was 0.094 against A. baumannii, while their AC50 values were 235 μg/mL and 200 μg/mL, respectively.
# [4] = HEK293 cytotoxicity assay (Cell Titer Glo); format: cell-based; conditions: human, HEK293T Cytotoxicity (IC50, μg/mL)
# Experimental: as §2, §3
# [5] = In vitro metabolic stability, human; format: in vitro ADME; conditions: read-out: In vitro metabolic stability (t1/2, min), human
# [6] = in vivo, 1 mg/kg
# Experimental: Plasma samples were taken from 3 mice per time point (5, 15, 30 min; 1, 2, 4, 6 and 8 h post-dose). An aliquot of 2 μL sample was protein precipitated with 60 μL methanol, the mixture was vortex-mixed well and centrifuged at 13000 rpm for 10 min at 4° C. 2 μL supernatant was injected for LC-MS/MS analysis. The mean plasma concentration and the standard deviation from all 3 animals within each time point were calculated. PK parameters were calculated with a non-compartmental analysis. The mean plasma concentrations from all 3 mice at each time point were used in the calculations.
# [7] = In vitro metabolic stability, rat; format: in vitro ADME; conditions: read-out: In vitro metabolic stability (t1/2, min), rat
compound,measurement,setting,value
N=C(N)c1ccc(OCCN(CCOc2ccc(C(=N)N)cc2)c2ccccc2)cc1 [Analog P35],fraction unbound,[1]; dog plasma,0.126
same,fraction unbound,[1]; human plasma,0.13
same,fraction unbound,[1]; mouse plasma,0.169
same,fraction unbound,[1]; rat plasma,0.077
same,thermodynamic solubility,Solubility at pH 7.4,182 µM
same,Effect on beating at 10 μM,hERG channel,loss of all detectable beating
same,Direct hERG channel inhibition 1 h after exposure,"hERG channel; human, 1 h",Neither pentamidine nor P35 directly inhibited the hERG channel
same,IC50,CYP2C9,> 50 µM
same,IC50,CYP2D6,14.8 µM
same,IC50,CYP1A2,> 50 µM
same,IC50,CYP3A4,> 50 µM
same,IC50,CYP2C19,> 50 µM
same,half-life,[2],137 min
same,"HEK293T Cytotoxicity (IC50, μg/mL)",[3],235.4 µg/mL
same,IC50 at 48 h,[4],235 µg/mL
same,half-life,[5],> 145 min
same,AUCExtra (%),"[6]; female, C57BL/6, mouse, iv",6.74%
same,AUMCExtra (%),"[6]; female, C57BL/6, mouse, iv",37.7%
same,Tlast,"[6]; female, C57BL/6, mouse, iv",8.00 h
same,Adverse effects after single intravenous dose,[6]; mouse,no adverse effects
same,half-life,[7],110 min
